Laboratory results from patent US9441012B2, “Fluorinated epoxyketone-based compounds and uses thereof as proteasome inhibitors” (FLUORINOV PHARMA INC., priority 2012, dated 2016).

Tests used:
CCRF-CEM = experiment: NCI 60 human tumor cell line screen (SRB); format: cell-based; conditions: CCRF-CEM (Leukemia); 48 h
[1] = biological target: T1, Caspase-like (C-L) proteasome activity (Mus musculus, UniProt Q60692); experiment: Proteasome subunit activity in murine red blood cells after oral administration; format: in vivo, NOD/SCID mice; conditions: oral gavage, Example 1 50 mg/kg, Example 26 60 mg/kg
T1 construct: RBCs were lysed with assay lysis buffer and incubated on ice for 30 minutes; from tissue; host or cells: red blood cells of NOD/SCID mice after oral dosing
T1 sequence (Q60692 1-238): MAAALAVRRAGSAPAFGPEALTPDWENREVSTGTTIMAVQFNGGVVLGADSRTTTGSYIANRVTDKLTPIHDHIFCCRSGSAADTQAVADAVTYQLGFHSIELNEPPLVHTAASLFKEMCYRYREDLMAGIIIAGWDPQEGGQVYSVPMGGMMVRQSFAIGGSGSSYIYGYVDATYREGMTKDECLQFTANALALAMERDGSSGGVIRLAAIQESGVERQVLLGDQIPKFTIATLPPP
Description: (§1) Cells were harvested by centrifugation at 1,200 rpm at room temperature. Cell pellets were washed with PBS and lysed with assay lysis buffer (50 mM HEPES (N-2-hydroxyethylpiperazine-N′-2-ethanesulfonic acid), pH 7.5; 150 mM NaCl; 1% Triton X-100; 2 mM ATP). Cell lysates were incubated on ice for 30 minutes, mixed by vortex every 5 minutes, and then centrifuged at 12,000 g for 10 minutes. The supernatant was transferred to a 96-well plate. For each assay, 10 μg of total protein were incubated for 1 hour at 37° C. with increasing concentrations (1 nM to 10 μM) of test compound diluted in assay buffer (50 mM Tris-HCl (tris(hydroxymethyl)aminomethane-HCl), pH 7.5; 150 mM NaCl). DMSO alone was used as a control in every assay plate. After incubation, a specific fluorogenic proteasome substrate was added to each assay reaction at a final concentration of 40 μM in a total volume of 100 μL. N-Succinyl-Leu-Leu-Val-Tyr-7-amino-4-methylcoumarin (Suc-Leu-Leu-Val-Tyr-AMC) was used for measuring chymotrypsin-like (CT-L) activity, t-butoxycarbonyl-Leu-Arg-Arg-7-amino-4-methylcoumarin (Boc-Leu-Arg-Arg-AMC) for trypsin-like (T-L) activity, and benzyloxycarbonyl-L-leucyl-L-leucyl-L-glutamyl-7-amino-4-methylcoumarin (Z-Leu-Leu-Glu-AMC) for caspase-like (C-L) activity. The excitation wavelength was set at 360 nm and the fluorescence emission wavelength of AMC was detected at 460 nm. The fluorescence of free AMC released during the enzymatic reaction was measured with a SpectraMax M5 fluorescent spectrophotometric plate reader (Molecular Devices, Sunnyvale, Calif.). AMC release rate was measured at 37° C. in a kinetic mode, recording every 5 minutes for 30 minutes. Experiments were performed in triplicate and repeated at least twice.
(§2) All mouse experiments were performed in accordance with approval from the Ontario Cancer Institute institutional animal review board. Five- to six-week-old male non-obese diabetic/severe combined immunodeficient (NOD/SCID) mice were grouped randomly (n=3 mice per group). Mice were administered vehicle (5% DMSO, 20% Cremophor) or compounds of Formula I at different doses either intravenously or by oral gavage, and venous blood samples (20-50 μL) were collected from each mouse over 24 hours. Blood samples were mixed with heparin (APP Pharmaceuticals; Schaumburg, Ill.) in 0.5 mL tubes in accordance with the manufacturer's instructions. After centrifugal separation at 3,000 g for 10 minutes, red blood cells (RBCs) in the bottom layer were transferred into a new tube and stored at −70° C. until use. RBCs were lysed with assay lysis buffer and incubated on ice for 30 minutes, mixing by vortex every 5 minutes, and then centrifuged at 12,000 g for 10 minutes. The supernatant was transferred to a 96-well plate and proteasome activity was measured as described in above for tumor cell lysates.
(§3) Proteasome subunit activity (Chymotrypsin-like, Trypsin-like, Caspase-like, CT-L, T-L, C-L, respectively) were monitored over the course of 24 hrs following […] administration of representative compounds of Formula I. NOD/SCID mice were treated with the compound from Example 1 (50 mg/kg by oral gavage) and the compound from Example 26 (60 mg/kg by oral gavage) or vehicle control for up to 24 hours, as described above.
(§4) Table 10 summarizes the data for the representative compounds of Formula (I); the compounds of Examples 1 and 26.

[2] = biological target: T2, Trypsin-like (T-L) proteasome activity (Mus musculus, UniProt P70195); experiment: as above; format: in vivo, NOD/SCID mice; conditions: oral gavage, Example 1 50 mg/kg, Example 26 60 mg/kg
T2 construct: RBCs were lysed with assay lysis buffer and incubated on ice for 30 minutes; from tissue; host or cells: red blood cells of NOD/SCID mice after oral dosing
T2 sequence (P70195 44-277): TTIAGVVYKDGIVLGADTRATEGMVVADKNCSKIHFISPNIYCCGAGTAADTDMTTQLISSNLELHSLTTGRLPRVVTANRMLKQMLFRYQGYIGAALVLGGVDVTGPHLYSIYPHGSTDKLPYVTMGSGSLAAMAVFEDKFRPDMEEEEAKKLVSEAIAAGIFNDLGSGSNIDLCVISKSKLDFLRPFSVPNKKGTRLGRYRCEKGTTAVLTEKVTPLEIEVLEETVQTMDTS
Description: as §1, §2, §3, §4

[3] = biological target: T3, chymotrypsin-like (CT-L) proteasome activity (Mus musculus, UniProt O55234); experiment: as above; format: in vivo, NOD/SCID mice; conditions: oral gavage, Example 1 50 mg/kg, Example 26 60 mg/kg
T3 construct: RBCs were lysed with assay lysis buffer and incubated on ice for 30 minutes; from tissue; host or cells: red blood cells of NOD/SCID mice after oral dosing
T3 sequence (O55234 60-264): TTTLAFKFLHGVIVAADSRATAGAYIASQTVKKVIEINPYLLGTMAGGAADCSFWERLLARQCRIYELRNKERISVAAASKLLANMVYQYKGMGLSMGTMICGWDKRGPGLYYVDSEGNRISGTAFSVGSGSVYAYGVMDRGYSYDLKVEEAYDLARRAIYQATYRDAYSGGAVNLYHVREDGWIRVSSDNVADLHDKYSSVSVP
Description: as §1, §2, §3, §4

Row | SMILES | Log10GI50 (CCRF-CEM) | Log10LC50 (CCRF-CEM) | Log10TGI50 (CCRF-CEM) | Caspase-like (C-L) mean residual activity relative to vehicle treated controls ([1]; 30 min) [%] | Caspase-like (C-L) mean residual activity relative to vehicle treated controls ([1]; 24 hrs) [%] | Caspase-like (C-L) mean residual activity relative to vehicle treated controls ([1]; time 0) [%] | Trypsin-like (T-L) mean residual activity relative to vehicle treated controls ([2]; 30 min) [%] | Trypsin-like (T-L) mean residual activity relative to vehicle treated controls ([2]; 24 hrs) [%] | Trypsin-like (T-L) mean residual activity relative to vehicle treated controls ([2]; time 0) [%] | chymotrypsin-like (CT-L) mean residual activity relative to vehicle treated controls ([3]; 30 min) [%] | chymotrypsin-like (CT-L) mean residual activity relative to vehicle treated controls ([3]; 24 hours) [%] | chymotrypsin-like (CT-L) mean residual activity relative to vehicle treated controls ([3]; time 0) [%]
1 | C[C@]1(C(=O)[C@H](Cc2ccccc2)NC(=O)[C@H](Cc2ccccc2)NC(=O)[C@H](COC(F)F)NC(=O)CN2CCOCC2)CO1 [Example 29] | −7.62 | >−4.00 | >−4.00 |  |  |  |  |  |  |  |  | 
2 | Cc1ncc(C(=O)N[C@@H](COC(F)F)C(=O)N[C@@H](COC(F)F)C(=O)N[C@@H](Cc2ccccc2)C(=O)[C@@]2(C)CO2)s1 [Example 1, 2-methyl-thiazole-5-carboxylic acid ((S)-1-{(S)-1-[(S)-1-benzyl-2-((R)-2-methyloxiranyl)-2-oxo-ethylcarbamoyl]-2-difluoromethoxyethylcarbamoyl}-2-difluoromethoxyethyl)-amide] | −7.26 | >−4.00 | >−4.00 | 100 | 100 | 100 | 100 | 100 | 100 | 27 | 22 | 100
3 | C[C@]1(C(=O)[C@H](Cc2ccccc2)NC(=O)[C@H](COC(F)F)NC(=O)[C@H](COC(F)F)NC(=O)CN2CCOCC2)CO1 [Example 26, (S)-N-{(S)-1-[(S)-1-Benzyl-2-((R)-2-methyl-oxiranyl)-2-oxo-ethylcarbamoyl]-2-difluoromethoxyethyl}-3-difluoromethoxy-2-(2-morpholin-4-yl-acetylamino)-propio-namide] |  |  |  | 100 | 100 | 100 | 100 | 100 | 100 | 33 | 27 | 100
